These results are taken from patent publication US10738007B2, “Amide compounds as kinase inhibitors, compositions and methods of treatment” (TRANSLATIONAL DRUG DEVELOPMENT, LLC, priority 2016, dated 2020).

Where two headings read alike, the source gives them in different places.

For one series, the system named is K562 cell line. Nature of the series: Cell viability assay ([…]-GLO), K562. Format: cell-based. Conditions: Homo sapiens; K562 (does not express ITD-FLT3), 72 hours treatment. In outline:
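Cells seeded 2.5×10^3-5×10^3/well, grown 24 h, then exposed to compounds for 72 h. Viability read as ATP luminescence (CellTiter-Glo-type) after 37° C incubation; % growth = test/vehicle ×100. IC50 from sigmoidal dose-response fit.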

In the next series the target is ROCK2 (Homo sapiens (Human), UniProt O75116). Nature of the series: ROCK2 kinase inhibition assay (peptide phosphorylation, LABCHIP 3000). Format: biochemical. Conditions: 7 μM ATP, 2.5 nM ROCK2, 3 hours at 25° C.
ROCK2, sequence (O75116 whole entry, species assumed): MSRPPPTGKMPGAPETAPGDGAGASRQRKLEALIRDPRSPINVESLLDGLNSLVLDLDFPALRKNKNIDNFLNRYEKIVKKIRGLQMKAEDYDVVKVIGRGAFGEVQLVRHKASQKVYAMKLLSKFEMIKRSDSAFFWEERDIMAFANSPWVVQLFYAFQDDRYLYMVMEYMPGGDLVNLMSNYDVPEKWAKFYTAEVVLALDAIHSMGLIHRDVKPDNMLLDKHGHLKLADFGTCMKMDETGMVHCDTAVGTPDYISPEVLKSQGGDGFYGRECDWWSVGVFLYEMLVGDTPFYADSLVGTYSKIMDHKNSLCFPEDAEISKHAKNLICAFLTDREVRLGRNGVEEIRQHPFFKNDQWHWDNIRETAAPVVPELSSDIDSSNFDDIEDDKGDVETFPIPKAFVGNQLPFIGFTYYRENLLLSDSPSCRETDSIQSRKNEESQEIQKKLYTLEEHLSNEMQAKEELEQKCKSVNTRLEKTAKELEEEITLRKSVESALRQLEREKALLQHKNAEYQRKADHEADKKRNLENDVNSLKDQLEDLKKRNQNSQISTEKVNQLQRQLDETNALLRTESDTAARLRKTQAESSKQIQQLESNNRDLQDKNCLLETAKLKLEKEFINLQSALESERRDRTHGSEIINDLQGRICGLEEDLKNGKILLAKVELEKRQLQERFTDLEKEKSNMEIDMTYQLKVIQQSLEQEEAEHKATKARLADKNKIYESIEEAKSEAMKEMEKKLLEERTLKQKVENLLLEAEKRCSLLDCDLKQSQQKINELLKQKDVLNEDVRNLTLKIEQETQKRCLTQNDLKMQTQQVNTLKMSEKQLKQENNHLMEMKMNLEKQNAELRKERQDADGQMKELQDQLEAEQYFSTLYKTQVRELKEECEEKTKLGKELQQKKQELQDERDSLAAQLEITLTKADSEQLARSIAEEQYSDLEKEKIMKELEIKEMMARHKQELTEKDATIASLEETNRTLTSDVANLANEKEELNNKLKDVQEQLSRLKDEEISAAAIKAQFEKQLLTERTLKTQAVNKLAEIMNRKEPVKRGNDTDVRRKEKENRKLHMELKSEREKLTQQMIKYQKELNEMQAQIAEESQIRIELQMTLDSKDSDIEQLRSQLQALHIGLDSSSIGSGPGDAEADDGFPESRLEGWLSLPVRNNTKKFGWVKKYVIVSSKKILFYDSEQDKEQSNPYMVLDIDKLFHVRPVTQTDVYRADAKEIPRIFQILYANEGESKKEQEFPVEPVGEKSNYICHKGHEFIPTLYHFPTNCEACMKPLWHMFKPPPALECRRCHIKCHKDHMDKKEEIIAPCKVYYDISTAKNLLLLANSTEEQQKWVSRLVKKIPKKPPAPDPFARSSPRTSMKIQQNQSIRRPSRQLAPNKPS
A further series deals with MV411 cell line. Nature of the series: Cell viability assay ([…]-GLO), MV411. Format: cell-based. Conditions: for IC50: Homo sapiens, MV4-11, MV411 (ITD-FLT3+), 72 hours treatment; for FLT3-ITD+ Selectivity (K562/MV411): ratio K562/MV411.
Series [1] is described as follows: Pharmacokinetic activity in mice. Format: in vivo. Conditions: for AUC(0-t): read-out: AUC0-8. Here is the method:
Compounds were individually and accurately weighed out to produce a stock solution in Dimethyl-sulfoxide (DMSO) at a concentration of 2 mg/mL and stored at −20° C. From the stock solution, a working stock was prepared by diluting it in Methanol-Water 50:50 (v/v) at 20 μg/mL for calibration curve preparation and stored at 4° C. Standards used for quantitation and quality control samples (QCs) were prepared on the same day of sample processing using blank plasma obtained from non-treated mice. For each analyte, standards were prepared through serial dilutions of the working stock at concentrations of 0.1, 0.5, 1.0, 10, 50, 100, 500, and 1000 ng/mL; QCs were prepared at intermediate concentrations of 0.75, 7.5, 75, and 750 ng/mL. Plasma samples were stored at −80° C. until ready for analysis and then placed on ice for thawing. An aliquot of […] samples, standards, or QCs, were transferred into a 96-well extraction plate according to a pre-defined layout. An appropriate volume of Methanol-Formic Acid 99.9-0.1 containing internal standard (Verapamil at 25 ng/mL) was added to each well and the samples were extracted under vacuum. Eluent was then transferred into a LCMS plate for analysis using a suitable column for separation and MRM detection. Concentration of analytes was calculated based on the calibration curve and analyzed for pharmacokinetic parameters by using Non-compartmental analysis (NCA). Parameters such as Cmax, Tmax, half-life, AUC(0-last), AUC(0-∞), volume of distribution (Vss), and clearance (Cl/F) were reported.

The target of a further series is ROCK1 (Homo sapiens (Human), UniProt Q13464). Nature of the series: ROCK1 kinase inhibition assay (peptide phosphorylation, LABCHIP 3000). Format: biochemical. Conditions: 5 μM ATP, 3 nM ROCK1, 3 hours at 25° C.
ROCK1, sequence (Q13464 whole entry, species assumed): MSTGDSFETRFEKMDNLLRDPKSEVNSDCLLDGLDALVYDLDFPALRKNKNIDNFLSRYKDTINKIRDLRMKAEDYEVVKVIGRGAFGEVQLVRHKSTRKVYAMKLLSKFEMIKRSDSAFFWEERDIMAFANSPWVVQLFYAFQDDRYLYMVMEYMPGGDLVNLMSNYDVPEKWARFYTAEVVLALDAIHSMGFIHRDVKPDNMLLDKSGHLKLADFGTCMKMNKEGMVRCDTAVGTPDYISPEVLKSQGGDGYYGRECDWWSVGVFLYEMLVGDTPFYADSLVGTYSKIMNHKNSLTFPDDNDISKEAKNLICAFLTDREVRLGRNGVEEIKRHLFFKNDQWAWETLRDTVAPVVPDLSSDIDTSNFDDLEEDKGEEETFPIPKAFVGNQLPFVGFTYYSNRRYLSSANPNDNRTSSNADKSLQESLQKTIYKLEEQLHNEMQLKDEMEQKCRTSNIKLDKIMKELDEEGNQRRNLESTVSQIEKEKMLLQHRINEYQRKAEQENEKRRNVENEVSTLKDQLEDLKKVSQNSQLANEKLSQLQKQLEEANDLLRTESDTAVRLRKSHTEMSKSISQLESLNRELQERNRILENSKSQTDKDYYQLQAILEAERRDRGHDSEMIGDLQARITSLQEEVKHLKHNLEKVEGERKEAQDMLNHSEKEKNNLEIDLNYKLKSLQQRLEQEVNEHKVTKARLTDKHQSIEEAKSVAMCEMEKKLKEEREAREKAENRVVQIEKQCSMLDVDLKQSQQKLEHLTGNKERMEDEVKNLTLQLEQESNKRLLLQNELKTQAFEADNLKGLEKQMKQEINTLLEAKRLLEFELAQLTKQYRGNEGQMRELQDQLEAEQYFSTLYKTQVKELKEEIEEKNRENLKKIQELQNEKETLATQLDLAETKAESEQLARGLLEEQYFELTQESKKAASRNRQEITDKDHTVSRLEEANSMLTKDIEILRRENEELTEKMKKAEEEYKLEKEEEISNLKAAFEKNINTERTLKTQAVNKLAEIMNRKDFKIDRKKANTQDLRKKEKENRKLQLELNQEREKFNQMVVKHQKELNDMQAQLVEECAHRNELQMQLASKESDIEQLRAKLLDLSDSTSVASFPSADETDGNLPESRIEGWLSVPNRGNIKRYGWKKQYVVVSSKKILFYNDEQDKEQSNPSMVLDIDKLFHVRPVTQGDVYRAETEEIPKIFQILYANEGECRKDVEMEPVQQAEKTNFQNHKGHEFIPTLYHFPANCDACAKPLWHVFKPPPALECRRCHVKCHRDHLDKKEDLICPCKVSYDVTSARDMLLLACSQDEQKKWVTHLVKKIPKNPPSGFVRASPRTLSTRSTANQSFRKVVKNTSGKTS

Protocol for MV411 cell line: Cell viability in the presence of varying concentrations of the above listed compounds at different time points was used to assess cytotoxicity and the effect of the compounds on cell proliferation.
Cell viability was measured by the […] -GlO® cell viability assay from Promega (Madison, Wis.). The […] -GlO Luminescent Cell Viability Assay is a homogeneous method to determine the number of viable cells in culture based on quantitation of the ATP present, which signals the presence of metabolically active cells. Following treatment, […] -GlO® is added to treatment wells and incubated at 37° C. Luminescence values were measured at using a Molecular Devices Spectramax microplate reader.
Cells were grown to 70% confluency, trypsinized, counted, and seeded in 96 well flat-bottom plates at a final concentration of 2.5×10^3-5×10^3 cells/well (Day 0). Cells were allowed to incubate in growth media for 24 hours. Treatment with the test agents or standard agents began on Day 1 and continued for 72 hours. At the 72-hour time point, treatment containing media was removed.
For single agent and combination studies, data from each experiment was collected and expressed as % Cell Growth using the following calculation: % Cell Growth=(ftest/fvehicle)×100
Where ftest is the luminescence of the tested sample, and fvehicle is the luminescence of the vehicle in which the drug is dissolved. Dose response graphs and IC50 values were generated using Prism 6 software (GraphPad) using the following equation: Y=(Top−Bottom)/(1+10^((logIC50-X)−HillSlope))
Where X is the logarithm of the concentration and Y is the response. Y starts at the Bottom and goes to the Top with a sigmoid shape.
The experiments also evaluated the selectivity of the compounds for inhibiting growth of cancer cells carrying a mutation in the Flt3 gene. The MV411 cell line expresses the mutant allele of Flt3 with internal tandem duplications (ITD) of the gene.
Protocol for ROCK1: (§1) The peptide is phosphorylated by the protein kinase ROCK1 or ROCK2. The ROCK1 or ROCK2 enzyme, substrate, and cofactors (ATP and Mg^2+) are combined in a well of a microtiter plate and incubated for 3 hours at 25° C. in the presence or absence of an inhibitor compound. At the end of the incubation, the reaction is quenched by the addition of an EDTA-containing buffer. The substrate and product are separated and quantified electrophoretically using the microfluidic-based LABCHIP® 3000 Drug Discovery System from Caliper Life Sciences (Hopkinton, Mass.).
(§2) The components of the assay mixture are:
10 μM Sodium Orthovanadate
10 LM Beta-Glycerophosphate
(§3) 5 μM ATP (for ROCK1) or 7 μM ATP (for ROCK2)
3 nM ROCK1 or 2.5 nM ROCK2 enzyme
(§4) Substrate and product peptides present in each sample are separated electrophoretically using the LABCHIP® 3000 capillary electrophoresis instrument. […] Change in the relative fluorescence intensity of the substrate and product peaks is the parameter measured reflecting enzyme activity. Capillary electrophoregramms (RDA acquisition files) are analyzed using HTS Well Analyzer software (Caliper Life Sciences, Hopkinton, Mass.). The kinase activity in each sample is determined as the product to sum ratio (PSR): P/(S+P), where P is the peak height of the product peptide and S is the peak height of the substrate peptide. For each compound, enzyme activity is measured at various concentrations (12 concentrations of compound spaced by 3× dilution intervals). Negative control samples (0%-inhibition in the absence of inhibitor) and positive control samples (100%-inhibition in the presence of 20 mM EDTA) are assembled in replicates of four and are used to calculate %-inhibition values for each compound at each concentration. Percent inhibition (Pinh) is determined using the following equation: Pinh=(PSRO %−PSRinh)/(PSRO %−PSR100%)*100
(§5) where PSRinh is the product sum ratio in the presence of inhibitor, PSRO % is the average product sum ratio in the absence of inhibitor, and PSR100% is the average product sum ratio in 100%-inhibition control samples. The IC50 values of inhibitors are determined by fitting the inhibition curves (Pinh versus inhibitor concentration) by the 4-parameter sigmoidal dose-response model using XLfit 4 software (IBDS).
Protocol for ROCK2: as §1, §2
10 μM Sodium Orthovanadate
10 LM Beta-Glycerophosphate
as §3
3 nM ROCK1 or 2.5 nM ROCK2 enzyme
as §4, §5

For orientation: IC50 means the concentration that gives 50% inhibition. The term AUC(0-inf) denotes the area under the concentration-time curve extrapolated to infinity. A lower AUC(0-inf) goes with low exposure. In general, Cmax refers to the peak of the concentration-time curve. One may read the Tmax as the time from dosing to the highest level. The half-life is how long it takes for the measured level to halve. Low readings indicate fast loss, high ones slow loss. Usually CL/F stands for the apparent clearance, not corrected for the fraction that reaches the circulation. For orientation: bioavailability means the share of a dose that reaches the circulation, judged against a reference dose that is usually intravenous. Low readings indicate poor availability, high ones good availability. As for `O=C(NC1CCCC1)c1cccc([C@@H](CO)NC(=O)c2ccc(-c3ccncc3)cc2)c1` [Compound 10], the IC50 in the series on K562 cell line turned out to be 17 µM. In addition, the midpoint of inhibition against ROCK2, the IC50, lay at 0.00087 µM. Further, in the series on MV411 cell line, the IC50 came out at 0.17 µM and the “FLT3-ITD+ Selectivity (K562/MV411)” value is given as 100. Besides, in series [1] (IV - 1 mg/kg), the “AUC % Extrap” value came to 0.39%, the Cl/F obs was 2.83 mL/min/kg and the R-sq turned out to be 0.90. For the same molecule, in series [1] (PO - 5 mg/kg), the “AUC % Extrap” value stood at 0.09% and the R-sq was determined as 0.93. Moreover, in series [1] (mouse, plasma, IV - 1 mg/kg), the AUC(0-inf) came out at 5370 ng·h/mL, the C0 worked out at 7000 ng/mL, the Cmax stood at 4180 ng/mL and the Tmax came to 0.25 h. Also, in series [1] (mouse, plasma, IV - 1 mg/kg), the half-life was 3.86 h and the AUC(0-t) was 5350 ng·h/mL. The Vd in series [1] (mouse, plasma, IV - 1 mg/kg, read-out: Vss) is 0.32 L/kg. In series [1] (mouse, plasma, PO - 5 mg/kg), the AUC(0-inf) amounted to 51500 ng·h/mL, the CL/F is 1.5 mL/min/kg, the concentration peaked (Cmax) at 13100 ng/mL and the Tmax worked out at 1 h. In series [1] (mouse, plasma, PO - 5 mg/kg), the half-life is 2.32 h and the AUC(0-t) is 51400 ng·h/mL. For the same molecule, the bioavailability in series [1] (mouse, plasma, PO - 5 mg/kg vs IV - 1 mg/kg) was > 100%. Moreover, the Vd/F in series [1] (mouse, plasma, PO - 5 mg/kg, read-out: Vz/F obs) amounted to 0.3 L/kg. It took 0.0048 µM to reach half-maximal inhibition against ROCK1 (IC50).
As to `O=C(NC1CCCC1)c1cccc([C@@H](CO)NC(=O)c2cccc(-c3ccncc3)c2)c1` [Compound 63], the IC50 in the series with K562 cell line is > 100 µM; against ROCK2, 0.0041 µM; in the series on MV411 cell line, 0.14 µM; against ROCK1, 0.014 µM. Also, the “FLT3-ITD+ Selectivity (K562/MV411)” value in the series on MV411 cell line was >721.
Taken in the same sequence, the figures for `CN1CCc2ccc(NC(=O)c3cccc(CNC(=O)c4ccc(-c5ccncc5)cc4)c3)cc2C1` [Compound B, reference compound] were 20 µM, 0.0087 µM, 1.3 µM, 0.0099 µM and 15.
Taken in the same sequence, the figures for `CN(C)Cc1ccc(CNC(=O)c2cccc([C@@H](CO)NC(=O)c3ccc(-c4ccncc4)cc3)c2)cc1` [Compound 32] were 37 µM, 0.0009 µM, 0.06 µM, 0.0014 µM and 619.
As to `CN1CCn2nc(NC(=O)c3cccc(CNC(=O)c4ccc(-c5ccncc5)cc4)c3)cc2C1` [Compound 1], the IC50 is > 100 µM in the series on K562 cell line, 0.006 µM at ROCK2, 8.9 µM in the series with MV411 cell line and 0.0116 µM against ROCK1. Also, in the series on MV411 cell line, the “FLT3-ITD+ Selectivity (K562/MV411)” value is recorded as >11.
As for `O=C(COc1cccc(CNC(=O)c2ccc(-c3ccncc3)cc2)c1)NC1CC1` [Compound 3], the IC50 with K562 cell line is > 100 µM; at ROCK2 it was 0.0142 µM; in the series on MV411 cell line it was 2.4 µM; against ROCK1, 0.0388 µM. Also, the “FLT3-ITD+ Selectivity (K562/MV411)” value in the series with MV411 cell line is listed as >42.
Taken in the same sequence, the figures for `COC(=O)N1CCC(NC(=O)c2cccc([C@@H](CO)NC(=O)c3ccc(-c4ccncc4)cc3)c2)CC1` [Compound 77] were > 100 µM, 0.00094 µM, 0.02 µM, 0.0021 µM and >5000.
Regarding `CCc1ccc(-c2ccncc2)cc1C(=O)N[C@H](CO)c1cccc(C(=O)NC2CCCC2)c1` [Compound 70], the IC50 with K562 cell line came to 85 µM; on ROCK2, 0.0009 µM; in the series on MV411 cell line, 0.31 µM; on ROCK1 it was 0.00384 µM. Further, the “FLT3-ITD+ Selectivity (K562/MV411)” value in the series with MV411 cell line is 275.
For `CC(C)NC(=O)c1cccc(CNC(=O)c2ccc(-c3ccncc3)cc2)c1` [Compound 5], the 50% inhibitory concentration (IC50) was > 100 µM in the series on K562 cell line, 0.0067 µM on ROCK2, 1.5 µM in the series on MV411 cell line and 0.0217 µM against ROCK1. The “FLT3-ITD+ Selectivity (K562/MV411)” value in the series on MV411 cell line is >68.
As to `CCOc1cc(-c2cn[nH]c2)ccc1C(=O)N[C@H](C)c1cccc(C(=O)NC2CCCC2)c1` [Compound 103], the IC50 with K562 cell line came out at 8 µM; on ROCK2, 0.00052 µM; with MV411 cell line, 0.14 µM; at ROCK1, 0.00151 µM. Moreover, in the series with MV411 cell line, the “FLT3-ITD+ Selectivity (K562/MV411)” value is on record as 59.
As for `COCCOc1cc(-c2cn[nH]c2)ccc1C(=O)N[C@H](C)c1cccc(C(=O)NC2CCCC2)c1` [Compound 115], the IC50 in the series on K562 cell line came to 45 µM; against ROCK2, 0.00102 µM; in the series on MV411 cell line it was 0.24 µM; at ROCK1 it was 0.00391 µM. For the same molecule, the “FLT3-ITD+ Selectivity (K562/MV411)” value with MV411 cell line worked out at 188.
The corresponding values for `O=C(NC1CCN(CC(F)(F)F)CC1)c1cccc([C@@H](CO)NC(=O)c2ccc(-c3ccncc3)cc2)c1` [Compound 79] are > 100 µM, 0.00068 µM, 0.03 µM, 0.0019 µM and >3333.
In the case of `COC(=O)N1CCC(CNC(=O)c2cccc([C@@H](CO)NC(=O)c3ccc(-c4ccncc4)cc3)c2)CC1` [Compound 78], the IC50 was > 100 µM with K562 cell line, 0.00057 µM against ROCK2, 0.03 µM in the series with MV411 cell line and 0.0017 µM against ROCK1. In the series with MV411 cell line, the “FLT3-ITD+ Selectivity (K562/MV411)” value is given as >3333.
The corresponding values for `Cn1ccc2ccc(NC(=O)c3cccc([C@@H](CO)NC(=O)c4ccc(-c5ccncc5)cc4)c3)cc2c1=O` [Compound 28] are > 100 µM, 0.0011 µM, 2.4 µM, 0.0016 µM and >42.
Taken in the same sequence, the figures for `Cc1ccc(-c2ccncc2)cc1C(=O)N[C@H](CO)c1cccc(C(=O)NC2CCCC2)c1` [Compound 64] were > 100 µM, 0.0052 µM, 1.49 µM, 0.0168 µM and >68.
Taken in the same sequence, the figures for `O=C(NCC1CCC(F)(F)CC1)c1cccc([C@@H](CO)NC(=O)c2ccc(-c3ccncc3)cc2)c1` [Compound 24] were 28 µM, 0.0012 µM, 1.5 µM, 0.0022 µM and 19.
Regarding `O=C(NCC1CCCCC1)c1cccc([C@@H](CO)NC(=O)c2ccc(-c3ccncc3)cc2)c1` [Compound 21], the IC50 is 39 µM in the series on K562 cell line, 0.001 µM against ROCK2, 2.1 µM in the series with MV411 cell line and 0.0031 µM on ROCK1. Besides, the “FLT3-ITD+ Selectivity (K562/MV411)” value with MV411 cell line is given as 19.
